Data set [1] deals with T1, human serum albumin (HSA) (Homo sapiens, UniProt P02768).
T1 construct: purchased Sigma-Aldrich Co
The data set is described as follows: Albumin tryptophan fluorescence quenching. It is filed as binding. Particulars: for relative fluorescence intensity of HSA (I/Io, %), final: % of the initial HSA fluorescence remaining, λem 341 nm; for K(HSA): Scatchard equation, no site marker; for Kq (HSA): τ0 = 10^−8 s. As to the method:
(§1) The interaction between complexes 1–4 and albumins was investigated by recording the tryptophan fluorescence emission spectra and monitoring the quenching induced by incremental amounts of the complexes. For these experiments, albumins ([…]) were prepared in buffer solution (150 mM NaCl and 15 mM trisodium citrate at pH = 7) and their fluorescence emission spectra were recorded in the range 300—500 nm for λexcitation = 295 nm. Upon incremental addition of the compounds (Figures S13 and S14), a significant decrease in the intensity of the corresponding emission band at λmax,emission = 341 nm and 345 nm for HSA and BSA, respectively, was observed (up to 87% of the initial fluorescence, Figure 8). The observed fluorescence emission quenching might be a result of a change in the spatial conformation of the protein and specifically of rearrangement of its secondary structure, as a result of SA–complex interactions. To quantify this interaction, the fluorescence emission spectra (λexcitation = 295 nm) of the compounds were subtracted from the corresponding overall spectra. The potential influence of the inner-filter effect on the measurements was evaluated with Equation (S6) and was found negligible to affect the measurements.
(§2) The Stern–Volmer constant (KSV), the SA-quenching constant (Kq) and the SA-binding constant (K) of the compounds were determined using the Stern–Volmer and Scatchard equations (Equations (S2), (S3) and (S7)) and corresponding plots (Figures S15–S18). In these calculations, the fluorescence lifetime of tryptophan in SAs (το) was assumed to be 10^−8 s. […]
(§3) S5 Albumin−binding studies
(§4) S5.1 Interaction with albumins
(§5) In order to study the interaction of the compounds with the albumins, the compound was initially dissolved in DMSO (1 mM). Mixing of such solutions with the aqueous buffer solutions of the albumins used in the studies never exceeded 5% DMSO (v/v) in the final solution, which was needed due to low aqueous solubility of most […]
(§6) With the purpose to investigate if the compound can bind to carrier protein like serum albumins, albumin binding studies were carried out by tryptophan fluorescence quenching experiments using BSA or HSA (3 μM) in buffer (containing 15 mM trisodium citrate and 150 mM NaCl at pH 7.0). The quenching of the emission intensity of tryptophan residues of BSA at 344 nm or HSA at 342 nm was monitored using the compound as quenchers with increasing concentration. The fluorescence emission spectra of the compound were also recorded with λexcitation = 295 nm; in case that an additional emission band appeared the albumin−fluorescence emission spectra were corrected by subtracting the spectra of the compound. The influence of the inner−filter effect on the measurements was evaluated by the equation [9] :
(§7) Icorr = Imeas × 10 2 × 10 2 (equation S6) where Icorr = corrected intensity, Imeas = the measured intensity, c = the concentration of the quencher, d = the cuvette (1 cm), ε(λexc) and ε(λem) = the ε of the quencher at the excitation and the emission wavelength, respectively, as calculated from the UV−vis spectra of the […]
(§8) The Stern−Volmer and Scatchard graphs are used to study the interaction of the compound with the albumins. According to the Stern−Volmer quenching equation (equation S2), where Io = initial tryptophan fluorescence intensity of albumin, I = tryptophan fluorescence intensity of BSA after the addition of the quencher, Kq = quenching constant, KSV = Stern−Volmer constant, τo = average lifetime of albumin without the quencher, and, taking as fluorescence lifetime (τo) of tryptophan in albumin at around 10−8 s, KSV (in M−1) can be obtained by the slope of the diagram Io/I versus [compound] (Stern−Volmer plots), […]
(§9) and subsequently the quenching constant (Kq, in M−1s−1) may be calculated from equation From the Scatchard equation:
(§10) [Q] = nK − K Io (equation S7) where n is the number of binding sites per albumin and K is the albumin−binding constant […]

In data set [2] the target is T2, bovine serum albumin (BSA) (Bos taurus, UniProt P02769).
T2 construct: purchased Sigma-Aldrich Co
The data set is described as follows: Albumin tryptophan fluorescence quenching. In kind it is binding. Particulars: for relative fluorescence intensity of BSA (I/Io, %), final: % of the initial BSA fluorescence remaining, λem 345 nm; for K(BSA): Scatchard equation, no site marker; for Kq (BSA): τ0 = 10^−8 s. How it is done: as §1, §2, §3, §4, §5, §6, §7, §8, §9, §10

For another data set, the system named is CT DNA. Put plainly: DNA-melting temperature of CT DNA in presence of the compounds. In kind it is binding, calf. To be noted: compound–DNA ratio 1:50; for Tm of CT DNA in the presence of the compound: CT DNA alone Tm 80.7 °C; for ΔTm of CT DNA: versus CT DNA alone 80.7 °C. From the text:
In order to further clarify the interaction mode of the compounds with CT DNA, the effect of the temperature of this interaction was also investigated. Within this context, the thermal denaturation of DNA in the presence of the compounds was studied with UV-vis spectroscopy in order to calculate (via a sigmoidal fitting of the experimental data) the DNA-melting temperature (Tm), i.e., the temperature at which half of double-stranded DNA is denatured (“melted”) to single-stranded DNA.
S3 Binding studies with CT DNA
In order to study the interaction of the compounds with DNA, the compound was initially dissolved in DMSO (1 mM). Mixing of such solutions with the aqueous buffer solutions of DNA used in the studies never exceeded 5% DMSO (v/v) in the final solution, which was needed due to low aqueous solubility of most compounds. In all experiments, the effect of DMSO on the data has been taken into consideration and the appropriate corrections have been performed. The interaction of the compound with CT DNA was monitored by UV−vis spectroscopy, and viscosity measurements, and via competitive studies with EB by fluorescence emission spectroscopy. […]
S3.2 Determination of the DNA–melting temperature (Tm)
The UV–vis spectra of a CT DNA solution (1.25×10–4 M) in the presence of the compounds (2.5×10–6 M) were recorded upon increasing the temperature. The obtained data are presented as normalized absorbance at 260 nm (Normalized A(260 nm)) versus temperature (T (ºC)). A sigmoidal fitting of the data was applied for each compound and the melting temperature Tm (temperature with normalized absorbance of 0.5) was determined. […]

The nature of another data set: Solubility. It is filed as physicochemical.

The structures appear in SMILES notation.

T1 sequence (P02768 25-609): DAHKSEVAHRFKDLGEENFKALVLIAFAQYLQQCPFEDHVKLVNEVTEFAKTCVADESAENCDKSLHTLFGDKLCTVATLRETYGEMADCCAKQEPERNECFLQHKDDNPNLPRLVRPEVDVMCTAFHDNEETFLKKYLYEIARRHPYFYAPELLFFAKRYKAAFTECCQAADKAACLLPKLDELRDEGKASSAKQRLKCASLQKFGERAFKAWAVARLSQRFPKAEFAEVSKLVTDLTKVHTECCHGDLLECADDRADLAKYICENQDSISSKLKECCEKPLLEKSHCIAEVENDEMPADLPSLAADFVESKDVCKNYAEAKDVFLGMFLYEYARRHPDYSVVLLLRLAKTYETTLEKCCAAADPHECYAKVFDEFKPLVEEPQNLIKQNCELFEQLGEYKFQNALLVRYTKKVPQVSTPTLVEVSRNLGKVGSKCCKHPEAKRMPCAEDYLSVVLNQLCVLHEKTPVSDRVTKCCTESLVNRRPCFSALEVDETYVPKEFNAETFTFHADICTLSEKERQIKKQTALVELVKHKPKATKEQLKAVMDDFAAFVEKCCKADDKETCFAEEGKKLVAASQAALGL
T2 sequence (P02769 25-607): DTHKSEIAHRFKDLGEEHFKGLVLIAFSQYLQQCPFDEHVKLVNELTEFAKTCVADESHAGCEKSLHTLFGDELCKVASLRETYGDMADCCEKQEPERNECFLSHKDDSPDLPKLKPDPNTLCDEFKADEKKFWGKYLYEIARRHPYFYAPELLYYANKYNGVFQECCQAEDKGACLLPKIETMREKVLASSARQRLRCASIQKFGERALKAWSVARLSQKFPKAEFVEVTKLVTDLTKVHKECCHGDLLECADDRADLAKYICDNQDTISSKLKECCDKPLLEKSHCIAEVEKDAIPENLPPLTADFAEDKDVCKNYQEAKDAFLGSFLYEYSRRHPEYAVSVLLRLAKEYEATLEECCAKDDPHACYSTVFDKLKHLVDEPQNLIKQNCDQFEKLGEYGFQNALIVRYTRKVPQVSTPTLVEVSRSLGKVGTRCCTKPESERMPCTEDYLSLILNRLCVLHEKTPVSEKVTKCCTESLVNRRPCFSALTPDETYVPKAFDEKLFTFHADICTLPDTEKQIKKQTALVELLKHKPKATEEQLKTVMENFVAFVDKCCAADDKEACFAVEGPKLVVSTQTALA

In the case of `O=C(O)c1ccccc1Nc1ccc([N+](=O)[O-])cc1` [4′–NO2–fenH, 4′–nitrofenamic acid], in data set [1], the “relative fluorescence intensity of HSA (I/Io, %), final” value is 54.3%; the “K(HSA)” value is reported as 3.82 (±0.09) × 10^5 M^−1; the “Kq (HSA)” value was 9.54 (±1.09) × 10^12 M^−1s^−1. In data set [2], the “relative fluorescence intensity of BSA (I/Io, %), final” value stood at 45.0%; the “K(BSA)” value is recorded as 3.31 (±0.14) × 10^5 M^−1; the “Kq (BSA)” value was 1.18 (±0.09) × 10^13 M^−1s^−1. The “Tm of CT DNA in the presence of the compound” value (“Tm of CT DNA … of the compound” for short) in the data set with CT DNA amounted to 83.7 °C.
As for `CO.CO.CO.CO.O=C([O-])c1ccccc1Nc1ccc([N+](=O)[O-])cc1.O=C([O-])c1ccccc1Nc1ccc([N+](=O)[O-])cc1.[Co+2]` [Complex 1, [Co(4′–NO2–fen)2(MeOH)4]], the “solubility in H2O and MeCN” value in the data set “Solubility” was “partially soluble”. Also, in data set [1], the “relative fluorescence intensity of HSA (I/Io, %), final” value is on record as 32.8%; the “K(HSA)” value was 1.68 (±0.04) × 10^5 M^−1; the “Kq (HSA)” value is 1.10 (±0.03) × 10^13 M^−1s^−1. In addition, in data set [2], the “relative fluorescence intensity of BSA (I/Io, %), final” value is on record as 45.6%; the “K(BSA)” value is on record as 1.68 (±0.07) × 10^5 M^−1; the “Kq (BSA)” value is given as 9.51 (±0.06) × 10^12 M^−1s^−1. Besides, the “Tm of CT DNA … of the compound” value with CT DNA came out at 83.7 °C.
As to `O=C([O-])c1ccccc1Nc1ccc([N+](=O)[O-])cc1.O=C([O-])c1ccccc1Nc1ccc([N+](=O)[O-])cc1.[Co+2].c1ccc(Nc2ccccn2)nc1` [Complex 2, [Co(4′–NO2–fen)2(bipyam)]], the “solubility in H2O and MeCN” value in “Solubility” is on record as “partially soluble”. Moreover, in data set [1], the “relative fluorescence intensity of HSA (I/Io, %), final” value came out at 21.1%; the “K(HSA)” value is 2.56 (±0.10) × 10^5 M^−1; the “Kq (HSA)” value was 1.91 (±0.06) × 10^13 M^−1s^−1. Further, in data set [2], the “relative fluorescence intensity of BSA (I/Io, %), final” value was determined as 35.3%; the “K(BSA)” value is 1.75 (±0.08) × 10^5 M^−1; the “Kq (BSA)” value is 1.30 (±0.06) × 10^13 M^−1s^−1. For the same molecule, in the data set on CT DNA, the “Tm of CT DNA … of the compound” value worked out at 74.5 °C and the “ΔTm of CT DNA” value is given as “negative”.
In the case of `O=C([O-])c1ccccc1Nc1ccc([N+](=O)[O-])cc1.O=C([O-])c1ccccc1Nc1ccc([N+](=O)[O-])cc1.[Co+2].c1cnc2c(c1)ccc1cccnc12` [Complex 3, [Co(4′–NO2–fen)2(phen)]], the “solubility in H2O and MeCN” value in “Solubility” is reported as “partially soluble”. In data set [1], the “relative fluorescence intensity of HSA (I/Io, %), final” value amounted to 22.7%; the “K(HSA)” value was 1.93 (±0.09) × 10^5 M^−1; the “Kq (HSA)” value is given as 1.87 (±0.04) × 10^13 M^−1s^−1. Further, in data set [2], the “relative fluorescence intensity of BSA (I/Io, %), final” value is recorded as 24.4%; the “K(BSA)” value was 2.06 (±0.07) × 10^5 M^−1; the “Kq (BSA)” value is on record as 1.64 (±0.04) × 10^13 M^−1s^−1. Moreover, the “Tm of CT DNA … of the compound” value in the data set on CT DNA is 84.7 °C.
Turning to `C[O-].C[O-].Cc1ccc2ccc3ccc(C)nc3c2n1.Cc1ccc2ccc3ccc(C)nc3c2n1.O=C([O-])c1ccccc1Nc1ccc([N+](=O)[O-])cc1.O=C([O-])c1ccccc1Nc1ccc([N+](=O)[O-])cc1.[Co+2].[Co+2]` [Complex 4, [Co2(4′–NO2–fen)2(μ–CH3O)2(neoc)2]], the “solubility in H2O and MeCN” value in “Solubility” is on record as “partially soluble”. In data set [1], the “relative fluorescence intensity of HSA (I/Io, %), final” value was found to be 12.1%; the “K(HSA)” value is given as 5.03 (±0.19) × 10^5 M^−1; the “Kq (HSA)” value is reported as 3.98 (±0.12) × 10^13 M^−1s^−1. In data set [2], the “relative fluorescence intensity of BSA (I/Io, %), final” value was found to be 19.2%; the “K(BSA)” value is 2.74 (±0.10) × 10^5 M^−1; the “Kq (BSA)” value is listed as 2.19 (±0.05) × 10^13 M^−1s^−1. Besides, in the data set with CT DNA, the “Tm of CT DNA … of the compound” value worked out at 73.9 °C and the “ΔTm of CT DNA” value is given as “negative”.

The values are drawn from publication PMC12195967, “Cobalt(II) Complexes of 4′–Nitro–Fenamic Acid: Characterization and Biological Evaluation” (Molecules, 2025).
